Common to all, as to assay type: cell-based
Experiment [1] has as its system T47D cells expressing mutant PI3Ka (H1047R). In words: In vitro cell proliferation, T47D cells (CellTiter-Glo). Conditions: inhibition of proliferation, read-out: Avg T-47D EC50. How it is done: (§1) In Vitro Cell Proliferation: Determination of EC50 Values for Inhibition of Proliferation in T47D Cells Expressing Mutant PI3Ka (H1047R) Mutation and SKBR3 Cells Express WT PI3Ka.
(§2) T47D or SKBR3 cells were trypsinized, resuspended in culture media and seeded onto assay ready plates. T47D culture media consisted of RPMI, 10% FBS and Insulin (0.2 units/mL). SKBR3 culture media consisted of McCoys 5a and 10% FBS. Cells were seeded at a density of 1,500 cells/well and dispensed in 50 μl onto 384 well assay ready plates (Corning, 89089-790). Assay ready plates had previously been stamped with 10-point dilutions of compounds of interest, as well as controls. The Echo655 is used to stamp plates at 40 nL of compound or DMSO. Cells were grown for 72 hours at 37° Celsius and 5% CO2. After 72 hours, cells were equilibrated at room temperature for 15 minutes. 30 μL of CellTiter-Glo reagent is added to the plate, which is then shaken for 30 minutes at temperature at 300-500 rpm. Cells are then read on an Envision plate reader. The percentage of inhibition of proliferation was calculated using the following formula: % Inhibition=100×(LumD−Lumsample)/(LumD−Lumlnh), where D is obtained from cells treated with 0.1% DMSO only; lnh is obtained from cells treated with 10 uM Alpelisib. The effective concentration achieving 50% inhibition of proliferation (EC50) is calculated by fitting the Curve using Xlfit (v5.3.1.3), equation 201: Y=Bottom+(Top−Bottom)/(1+10^((LogEC50−X)*HillSlope)).

Experiment [2] has as its system SKBR3 cells express WT PI3Ka. In words: In vitro cell proliferation, SKBR3 cells (CellTiter-Glo). The conditions noted are these: inhibition of proliferation. On the procedure:
as §1, §2
On the technique in general: Cellular ATP, detected with luciferase, serves as a proxy for viable cell number.

Experiment [3] relates to phosphorylation of AKT (pAKT) in T47D cells expressing mutant PI3Ka (H1047R). In words: In vitro cell pAKT (Ser473) HTRF, T47D cells. How it is done: (§3) In Vitro Cell pAKT: Determination of IC50 Values for Inhibition of Phosphorylation of AKT (pAKT) in T47D Cells Expressing Mutant PI3Ka (H1047R) Mutation and SKBR3 Cells Express WT PI3Ka.
(§4) T47D or SKBR3 cells were trypsinized, resuspended in culture media and seeded onto assay ready plates. T47D culture media consisted of RPMI, 10% FBS and Insulin (0.2 units/mL). SKBR3 culture media consisted of McCoy's 5a and 10% FBS. Cells were seeded at a density of 5000 cells/well and dispensed in 12.5 μL onto 384 well assay ready plates (Perkin Elmer, 6008238)). Assay ready plates had previously been stamped with 10-point dilutions of compounds of interest, as well as controls. The Echo655 is used to stamp plates at 12.5 nL of compound or DMSO. Cells were grown for 6 hours at 37° Celsius and 5% CO2. After 6 hours, 4 μL of Lysis buffer reagent was added to the plate, which was then centrifuged for 1 minute at 1000 rpm. Then the plate was incubated at room temperature for 30 minutes. After 30 minutes, 4 μL of antibody mix containing Eu Cryptate, d2 Cryptate, and detection buffer, was added to the plate. The plate was centrifuged for 1 minute at 1000 rpm and then incubated overnight at room temperature. The plate was read on an Envision plate reader using the HTRF protocol. The percentage of inhibition of AKT phosphorylation was calculated using the following formula: % Inhibition=100×(pAKTHC−pAKTSample)/(pAKTHC−pAKTLC)), where pAKTHC is obtained from cells treated with 0.1% DMSO only; PAKTLC is obtained from cells treated with 10 uM Alpelisib. The IC50 (concentration achieving 50% inhibition of pAKT) is calculated by fitting the Curve using XIfit (v5.3.1.3), equation 201: Y=Bottom+(Top−Bottom)/(1+10^((LogIC50−X)*HillSlope)).
Background: Time-resolved FRET reads energy transfer from a long-lived donor to a nearby acceptor.

The subject of experiment [4] is phosphorylation of AKT (pAKT) in SKBR3 cells express WT PI3Ka. In words: In vitro cell pAKT (Ser473) HTRF, SKBR3 cells. Conditions: cellular pAKT. On the procedure: as §3, §4
[5] abbreviates: cellular pAKT, T47D cells, mutant PI3Ka (H1047R), 6 hours; read-out: Avg T-47D IC50.

Each structure is given as a SMILES string. pEC50, pIC50: −log10 of the molar value. Like-named read-outs stand apart in the source and are kept apart here.

A word on the pEC50: it is the EC50 on a negative log10 scale, so that one unit is a factor of ten. As a reminder, the pIC50 is −log10 of the IC50, conventionally taken in molar units. For the compound `Cc1cc(C(C)Nc2ccccc2C(=O)O)c2cc(N3CCC(c4ccccc4)C3)n(C)c(=O)c2c1` (mixture of isomers) [Example 60], the pEC50 in experiment [1] (72 hours) was 5.70 to 6.30; in experiment [2] (72 hours) it was below 4.82. Further, the pIC50 was 6.30 to 9.00 in experiment [3] (setting [5]) and below 4.82 in experiment [4] (6 hours).

On to `Cc1cc(C(C)Nc2ccccc2C(=O)O)c2cc(N3CC4CN(CC(F)(F)F)CC4C3)n(C)c(=O)c2c1` (mixture of isomers) [Example 90], for which the pEC50 in experiment [1] (72 hours) is 5.70 to 6.30; in experiment [2] (72 hours), below 4.82. Besides, the figures for the pIC50 in experiment [3] (setting [5]) and in experiment [4] (6 hours) were 5.70 to 6.30 and below 4.82, respectively.

As to `Cc1cc(C(C)Nc2ccccc2C(=O)O)c2cc(N3CCN(C(C)C(F)(F)F)CC3)n(C)c(=O)c2c1` (mixture of isomers) [Example 271], the pEC50 in experiment [1] (72 hours) was 6.30 to 9.00; in experiment [2] (72 hours), 4.82 to 5.70. Moreover, the pIC50 is 6.30 to 9.00 in experiment [3] (setting [5]) and below 4.82 in experiment [4] (6 hours).

In the case of `Cc1cc(C(C)Nc2ccccc2C(=O)O)c2cc(N3CCC(C)(C)CC3)n(C)c(=O)c2c1` (single isomer, unassigned) [Example 2, 2-((1-(3-(4,4-dimethylpiperidin-1-yl)-2,7-dimethyl-1-oxo-1,2-dihydroisoquinolin-5-yl)ethyl)amino)benzoic acid], the figures for the pEC50 in experiment [1] (72 hours) and in experiment [2] (72 hours) were 4.82 to 5.70 and below 4.82, respectively. Moreover, the pIC50 was below 4.82 in experiment [3] (read-out: Avg T-47D IC50; cellular pAKT, T47D cells, mutant PI3Ka (H1047R), 6 hours) and below 4.82 in experiment [4] (6 hours).

For the compound `Cc1cc(C(C)Nc2ccc(Cl)nc2C(=O)O)c2cc(N3CCC(C)(C)CC3)n(C)c(=O)c2c1` (single isomer, unassigned) [Example 3, 6-chloro-3-((1-(3-(4,4-dimethylpiperidin-1-yl)-2,7-dimethyl-1-oxo-1,2-dihydroisoquinolin-5-yl)ethyl)amino)picolinic acid], the pEC50 was 6.30 to 9.00 in experiment [1] (72 hours) and 4.82 to 5.70 in experiment [2] (Homo sapiens, SK-BR-3, 72 h). In addition, the values for the pIC50 in experiment [3] (setting [5]) and in experiment [4] (6 hours) were 5.70 to 6.30 and 4.82 to 5.70, respectively.

For `Cc1cc(C(C)Nc2ccc(Cl)nc2C(=O)O)c2cc(N3CCC(C)(C)CC3)n(C)c(=O)c2c1` (single isomer, unassigned) [Example 4, 6-chloro-3-((1-(3-(4,4-dimethylpiperidin-1-yl)-2,7-dimethyl-1-oxo-1,2-dihydroisoquinolin-5-yl)ethyl)amino)picolinic acid], the pEC50 in experiment [1] (72 hours) and in experiment [2] (72 hours) was 4.82 to 5.70 in each case. Moreover, the pIC50 in experiment [3] (setting [5]) is 4.82 to 5.70; in experiment [4] (6 hours) it was below 4.82.

In the case of `Cc1cc(C(C)Nc2ccccc2C(=O)O)c2cc(C3=CCC(C)(C)CC3)n(C)c(=O)c2c1` (single isomer, unassigned) [Example 5, 2-((1-(3-(4,4-dimethylcyclohex-1-en-1-yl)-2,7-dimethyl-1-oxo-1,2-dihydroisoquinolin-5-yl)ethyl)amino)benzoic acid], the negative-log EC50 (pEC50) in experiment [1] (72 hours) was 4.82 to 5.70; in experiment [2] (72 hours), below 4.82. In addition, the values for the pIC50 in experiment [3] (setting [5]) and in experiment [4] (6 hours) were 4.82 to 5.70 and below 4.82, respectively.

With `Cc1cc(C(C)Nc2ccccc2C(=O)O)c2cc(C3=CCC(C)(C)CC3)n(C)c(=O)c2c1` (single isomer, unassigned) [Example 6, 2-((1-(3-(4,4-dimethylcyclohex-1-en-1-yl)-2,7-dimethyl-1-oxo-1,2-dihydroisoquinolin-5-yl)ethyl)amino)benzoic acid], the pEC50 in experiment [1] (72 hours) is 6.30 to 9.00; in experiment [2] (72 hours) it was 4.82 to 5.70. Moreover, the pIC50 in experiment [3] (setting [5]) was 6.30 to 9.00; in experiment [4] (6 hours) it was 4.82 to 5.70.

Consider `Cc1cc(C(C)Nc2ccccc2C(=O)O)c2cc(N3CCN(CC(F)(F)F)CC3)n(C)c(=O)c2c1` (single isomer, unassigned) [Example 9, 2-((1-(2,7-dimethyl-1-oxo-3-(4-(2,2,2-trifluoroethyl)piperazin-1-yl)-1,2-dihydroisoquinolin-5-yl)ethyl)amino)benzoic acid], for which the figures for the pEC50 in experiment [1] (72 hours) and in experiment [2] (72 hours) were 4.82 to 5.70 and below 4.82, respectively. The pIC50 is 4.82 to 5.70 in experiment [3] (setting [5]) and below 4.82 in experiment [4] (6 hours).

As for `Cc1cc(C(C)Nc2ccccc2C(=O)O)c2cc(N3CC4CCC(C4)C3)n(C)c(=O)c2c1` (single isomer, unassigned) [Example 10, 2-((1-(3-(3-azabicyclo[3.2.1]octan-3-yl)-2,7-dimethyl-1-oxo-1,2-dihydroisoquinolin-5-yl)ethyl)amino)benzoic acid], the pEC50 was 4.82 to 5.70 in experiment [1] (72 hours) and 4.82 to 5.70 in experiment [2] (Homo sapiens, SK-BR-3, 72 h). In addition, the pIC50 in experiment [3] (setting [5]) and in experiment [4] (6 hours) was below 4.82 throughout.

Consider `Cc1cc(C(C)Nc2ccccc2C(=O)O)c2cc(N3CC4CCC(C4)C3)n(C)c(=O)c2c1` (single isomer, unassigned) [Example 11, 2-((1-(3-(3-azabicyclo[3.2.1]octan-3-yl)-2,7-dimethyl-1-oxo-1,2-dihydroisoquinolin-5-yl)ethyl)amino)benzoic acid], for which the pEC50 in experiment [1] (72 hours) was 6.30 to 9.00; in experiment [2] (72 hours), 4.82 to 5.70. For the same compound, the pIC50 in experiment [3] (setting [5]) is 6.30 to 9.00; in experiment [4] (6 hours) it was 4.82 to 5.70.

As for `Cc1cc(C(C)Nc2ccccc2C(=O)O)c2cc(N3CCN(C)CC3)n(C)c(=O)c2c1` (single isomer, unassigned) [Example 12, 2-((1-(2,7-dimethyl-3-(4-methylpiperazin-1-yl)-1-oxo-1,2-dihydroisoquinolin-5-yl)ethyl)amino)benzoic acid], the pEC50 is below 4.82 in experiment [1] (72 hours) and below 4.82 in experiment [2] (Homo sapiens, SK-BR-3, 72 h). The pIC50 in experiment [3] (setting [5]) is below 4.82; in experiment [4] (Homo sapiens, SK-BR-3, 6 h) it was below 4.82.

As to `Cc1cc(C(C)Nc2ccccc2C(=O)O)c2cc(N3Cc4ccc(F)cc4C3)n(C)c(=O)c2c1` (single isomer, unassigned) [Example 50], the pEC50 was 4.82 to 5.70 in experiment [1] (72 hours) and below 4.82 in experiment [2] (72 hours).

For the compound `Cc1cc(C(C)Nc2ccccc2C(=O)O)c2cc(C3CCC(C)(C)CC3)n(C)c(=O)c2c1` (single isomer, unassigned) [Example 51], the values for the pEC50 in experiment [1] (72 hours) and in experiment [2] (72 hours) were 4.82 to 5.70 and below 4.82, respectively.

On to `Cc1cc(C(C)Nc2ccccc2C(=O)O)c2cc(C3CCC(C)(C)CC3)n(C)c(=O)c2c1` (single isomer, unassigned) [Example 52], for which the pEC50 in experiment [1] (72 hours) is 6.30 to 9.00; in experiment [2] (72 hours) it was 4.82 to 5.70.

Consider `Cc1ccc(N[C@H](C)c2cc(F)cc3c(=O)n(C)c(C4CC4C4CC4)cc23)c(C(=O)O)n1` (stereo in doubt) [Example 46, -(((R)-1-(3-(trans-[1,1′-bi(cyclopropan)]-2-yl)-7-fluoro-2-methyl-1-oxo-1,2-dihydroisoquinolin-5-yl)ethyl)amino)-6-methylpicolinic acid], for which, in experiment [1] (72 hours), the pEC50 is 5.70 to 6.30. Besides, the pIC50 in experiment [3] (setting [5]) is 6.30 to 9.00; in experiment [4] (6 hours), below 4.82.

As to `Cc1cc(C(C)Nc2ccccc2C(=O)O)c2cc(N3C[C@@H]4[C@@H](C#N)[C@@H]4C3)n(C)c(=O)c2c1` (stereo partly drawn) [Example 16, 2-((1-(3-((1R,5S,6r)-6-cyano-3-azabicyclo[3.1.0]hexan-3-yl)-2,7-dimethyl-1-oxo-1,2-dihydroisoquinolin-5-yl)ethyl)amino)benzoic acid], the pEC50 in experiment [1] (72 hours) was 4.82 to 5.70. Further, in experiment [3] (setting [5]), the pIC50 is below 4.82.

With `Cc1cc(C(C)Nc2ccccc2C(=O)O)c2cc(N3CC(c4ccccc4)C3)n(C)c(=O)c2c1` (stereo not drawn) [Example 53], the pEC50 in experiment [1] (Homo sapiens, T47D, 72 h) was 4.82 to 5.70; in experiment [2] (Homo sapiens, SK-BR-3, 72 h), below 4.82.

As for `CC(=O)N1CCN(c2cc3c(C(C)Nc4ccccc4C(=O)O)cc(C)cc3c(=O)n2C)CC1` (stereo not drawn) [Example 54], the pEC50 was 4.82 to 5.70 in experiment [1] (Homo sapiens, T47D, 72 h) and below 4.82 in experiment [2] (Homo sapiens, SK-BR-3, 72 h).

These data come from patent US20260078103A1, “ISOQUINOLONES AS PI3K INHIBITORS” (OnKure, Inc., priority 2022, published 2026).
